# Article PMC2997942 (Molecular pharmaceutics, 2010)
# Where two headings read alike, the source gives them in different places.
# Assays:
# OCTN2 [1] = target: T1, OCTN2 (Homo sapiens, UniProt O76082); assay: Inhibition of L-carnitine uptake in stably transfected hOCTN2-MDCK cells; assay type: cell-based; details: Observed Ki (±SEM), test set, 10 min, competitive inhibition model
# T1 sequence (O76082 1-557): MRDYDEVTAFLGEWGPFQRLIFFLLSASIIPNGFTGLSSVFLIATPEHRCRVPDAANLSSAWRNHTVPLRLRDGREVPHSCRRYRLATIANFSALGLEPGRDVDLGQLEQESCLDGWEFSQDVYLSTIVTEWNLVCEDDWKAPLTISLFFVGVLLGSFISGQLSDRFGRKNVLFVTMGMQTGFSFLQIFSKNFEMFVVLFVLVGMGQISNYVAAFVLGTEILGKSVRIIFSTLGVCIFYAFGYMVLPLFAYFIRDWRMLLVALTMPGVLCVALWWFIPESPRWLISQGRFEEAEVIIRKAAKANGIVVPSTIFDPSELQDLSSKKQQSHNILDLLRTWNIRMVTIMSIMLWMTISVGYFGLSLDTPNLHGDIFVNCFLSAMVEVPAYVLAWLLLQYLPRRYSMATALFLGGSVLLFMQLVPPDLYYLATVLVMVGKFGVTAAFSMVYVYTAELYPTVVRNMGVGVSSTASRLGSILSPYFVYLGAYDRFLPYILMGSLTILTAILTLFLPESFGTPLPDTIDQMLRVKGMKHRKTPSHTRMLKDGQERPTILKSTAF
# [2] = clinical; ref Supplemental Table S6 references 1-19; cited from earlier work
# OCTN2 [3] = details: Mouse enterocyte; cited from earlier work
# OCTN2 [4] = target: T1, OCTN2; details: hOCTN2-Transfected MDCKII Cells, cited from earlier work; for Ki: read-out: Ki or IC50
# OCTN2 [5] = target: T1, OCTN2; details: read-out: Ki or IC50; Caki-1 (human proximal tubule cell line); cited from earlier work
# human OCTN2 = details: read-out: Ki or IC50; Hela with human OCTN2; cited from earlier work
# OCTN2 [6] = target: T1, OCTN2; details: read-out: Ki or IC50; BeWo (human placental cell line); cited from earlier work
# rat OCTN2 [7] = details: L6 stable cell line with rat OCTN2; cited from earlier work
# [8] = in vivo; cited from earlier work
# Rat kidney OCTN2 = details: read-out: Ki or IC50; Rat kidney OCTN2 reconstituted in liposomes; cited from earlier work
# OCTN2 [9] = target: T1, OCTN2; details: read-out: Ki or IC50; L6 cells overexpressing hOCTN2; cited from earlier work
# rat OCTN2 [10] = details: read-out: Ki or IC50; HEK stable cell line with rat OCTN2; cited from earlier work
# [11] = system: Mouse myoblastic C2C12 cells; details: read-out: Ki or IC50; cited from earlier work
compound,measurement,setting,value
CNC(=C[N+](=O)[O-])NCCSCc1csc(CN(C)C)n1 [Nizatidine],Ki,OCTN2 [1],183 ± 17 µM
same,Documented to cause rhabdomyolysis and/or carnitine deficiency in the literature,[2],No
CCN(CC)CC(=O)Nc1c(C)cccc1C [Lidocaine],Ki or IC50,OCTN2 [3],Not inhibitor
same,Documented to cause rhabdomyolysis and/or carnitine deficiency in the literature,[2],No
CCc1c2c(nc3ccc(OC(=O)N4CCC(N5CCCCC5)CC4)cc13)-c1cc3c(c(=O)n1C2)COC(=O)[C@]3(O)CC [Irinotecan],Ki,OCTN2 [1],219 ± 18 µM
C[C@H]1O[C@@H](O[C@H]2[C@@H](O)C[C@H](O[C@H]3[C@@H](O)C[C@H](O[C@H]4CC[C@@]5(C)[C@H](CC[C@@H]6[C@@H]5C[C@@H](O)[C@]5(C)[C@@H](C7=CC(=O)OC7)CC[C@]65O)C4)O[C@@H]3C)O[C@@H]2C)C[C@H](O)[C@@H]1O [Digoxin],Ki or IC50,OCTN2 [4],Not inhibitor
NC(N)=Nc1nc(CSCCC(N)=NS(N)(=O)=O)cs1 [Famotidine],Ki,OCTN2 [5],1920 µM
same,Documented to cause rhabdomyolysis and/or carnitine deficiency in the literature,[2],Yes[18]
O=C(Cc1cccs1)N[C@@H]1C(=O)N2C(C(=O)[O-])=C(C[n+]3ccccc3)CS[C@H]12 [Cephaloridine],Ki,human OCTN2,230 µM
CN(C)C(=N)N=C(N)N [Metformin],Ki,OCTN2 [5],4960 µM
same,Documented to cause rhabdomyolysis and/or carnitine deficiency in the literature,[2],Yes[14]
O=C(O)COCCN1CCN(C(c2ccccc2)c2ccc(Cl)cc2)CC1 (stereo not drawn) [Cetirizine],Documented to cause rhabdomyolysis and/or carnitine deficiency in the literature,[2],No
CCC1=C[C@@H]2CN(C1)Cc1c([nH]c3ccccc13)[C@@](C(=O)OC)(c1cc3c(cc1OC)N(C)[C@H]1[C@@](O)(C(=O)OC)[C@H](OC(C)=O)[C@]4(CC)C=CCN5CC[C@]31[C@@H]54)C2 [Vinorelbine],Ki,OCTN2 [1],26.8 ± 1.5 µM
same,Documented to cause rhabdomyolysis and/or carnitine deficiency in the literature,[2],No
Cc1c(F)c(N2CCNC(C)C2)cc2c1c(=O)c(C(=O)O)cn2C1CC1 (stereo not drawn) [Grepafloxacin],Ki,OCTN2 [6],300 µM
N.N.[Cl][Pt][Cl] [Cisplatin],Ki or IC50,rat OCTN2 [7],Not inhibitor
same,Documented to cause rhabdomyolysis and/or carnitine deficiency in the literature,[2],Yes[19]
same,Cmax,[8],8130 nM
CC[C@H]1OC(=O)[C@H](C)[C@@H](O[C@H]2C[C@@](C)(OC)[C@@H](O)[C@H](C)O2)[C@H](C)[C@@H](O[C@@H]2O[C@H](C)C[C@H](N(C)C)[C@H]2O)[C@](C)(O)C[C@@H](C)/C(=N\OCOCCOC)[C@H](C)[C@@H](O)[C@]1(C)O [Roxithromycin],Ki,OCTN2 [1],333 ± 25 µM
same,Documented to cause rhabdomyolysis and/or carnitine deficiency in the literature,[2],Yes with statin[10]
C[C@H](CS)C(=O)N1CCC[C@H]1C(=O)O [Captopril],Ki or IC50,OCTN2 [4],Not inhibitor
CO/N=C(\C(=O)N[C@@H]1C(=O)N2C(C(=O)[O-])=C(C[N+]3(C)CCCC3)CS[C@H]12)c1csc(N)n1 [Cefepime],Ki,human OCTN2,1700 µM
Cc1nc2n(c(=O)c1CCN1CCC(c3noc4cc(F)ccc34)CC1)CCCC2 [Risperidone],Documented to cause rhabdomyolysis and/or carnitine deficiency in the literature,[2],Yes with statin[17]
CN/C(=N/CCSCc1nc[nH]c1C)NC#N [Cimetidine],Documented to cause rhabdomyolysis and/or carnitine deficiency in the literature,[2],No
Ciclotropium,Ki,OCTN2 [5],30 µM
same,Documented to cause rhabdomyolysis and/or carnitine deficiency in the literature,[2],No
same,Cmax,[8],20.6 nM
NCC1(CC(=O)O)CCCCC1 [Gabapentin],Documented to cause rhabdomyolysis and/or carnitine deficiency in the literature,[2],No
O=C1[O][Pt]2([NH][C@@H]3CCCC[C@H]3[NH]2)[O]C1=O [Oxaliplatin],Ki or IC50,rat OCTN2 [7],Not inhibitor
same,Documented to cause rhabdomyolysis and/or carnitine deficiency in the literature,[2],No
COCCc1ccc(OCC(O)CNC(C)C)cc1 (stereo not drawn) [Metoprolol],Ki or IC50,OCTN2 [4],Not inhibitor
CC[C@]1(O)C[C@H]2CN(CCc3c([nH]c4ccccc34)[C@@](C(=O)OC)(c3cc4c(cc3OC)N(C=O)[C@H]3[C@@](O)(C(=O)OC)[C@H](OC(C)=O)[C@]5(CC)C=CCN6CC[C@]43[C@@H]65)C2)C1 [Vincristine],Documented to cause rhabdomyolysis and/or carnitine deficiency in the literature,[2],Yes[8]
NS(=O)(=O)c1cc(C(=O)O)c(NCc2ccco2)cc1Cl [Furosemide],Documented to cause rhabdomyolysis and/or carnitine deficiency in the literature,[2],No
CC12CC3CC(C)(C1)CC(N)(C3)C2 [Memantine],Ki or IC50,OCTN2 [4],Not inhibitor
same,Documented to cause rhabdomyolysis and/or carnitine deficiency in the literature,[2],No
CCCC(CCC)C(=O)O [Valproic acid],Documented to cause rhabdomyolysis and/or carnitine deficiency in the literature,[2],Yes[1]
"CCCC[N+]1(C)C2CC(OC(=O)C(CO)c3ccccc3)CC1C1OC12 (single isomer, unassigned; (-)) [(−)-N- butylscopolamine]",Ki,OCTN2 [5],1010 µM
CO/N=C(\C(=O)N[C@@H]1C(=O)N2C(C(=O)[O-])=C(C[n+]3ccc(N)n3CCO)CS[C@H]12)c1csc(N)n1 [Cefoselis],Ki,human OCTN2,6400 µM
same,Documented to cause rhabdomyolysis and/or carnitine deficiency in the literature,[2],Yes[3]
C[N+](C)(C)NCCC(=O)[O-] [Mildronate],Ki,OCTN2 [4],26 µM
same,Documented to cause rhabdomyolysis and/or carnitine deficiency in the literature,[2],No
OC1(c2ccc(Cl)c(C(F)(F)F)c2)CCN(CCCC(c2ccc(F)cc2)c2ccc(F)cc2)CC1 [Penfluridol],Ki,OCTN2 [1],26.5 ± 4.1 µM
same,Documented to cause rhabdomyolysis and/or carnitine deficiency in the literature,[2],No
COc1cc(N)c(Cl)cc1C(=O)NC1CCN(CCCOc2ccc(F)cc2)CC1OC (stereo not drawn) [Cisapride],Ki,OCTN2 [1],66.7 ± 9.8 µM
same,Documented to cause rhabdomyolysis and/or carnitine deficiency in the literature,[2],Yes[13]
COc1cccc2c1C(=O)c1c(O)c3c(c(O)c1C2=O)C[C@@](O)(C(C)=O)C[C@@H]3O[C@H]1C[C@H](N)[C@H](O)[C@H](C)O1 [Daunorubicin],Ki,OCTN2 [1],502 ± 41 µM
same,Documented to cause rhabdomyolysis and/or carnitine deficiency in the literature,[2],No
COC(=O)[C@H]1[C@H]2C[C@@H]3c4[nH]c5cc(OC)ccc5c4CCN3C[C@H]2C[C@@H](OC(=O)c2cc(OC)c(OC)c(OC)c2)[C@@H]1OC [Reserpine],Ki,OCTN2 [1],32.2 ± 4.8 µM
same,Documented to cause rhabdomyolysis and/or carnitine deficiency in the literature,[2],No
COc1ccc2[nH]c([S+]([O-])Cc3ncc(C)c(OC)c3C)nc2c1 (stereo not drawn) [Omeprazole],Ki,Rat kidney OCTN2,14.6 µM
same,Documented to cause rhabdomyolysis and/or carnitine deficiency in the literature,[2],Yes[6]
Cc1nnc(SCC2=C(C(=O)O)N3C(=O)[C@@H](NC(=O)Cn4cnnn4)[C@H]3SC2)s1 [Cefazolin],Ki,OCTN2 [9],6740 µM
Nc1c2c(nc3ccccc13)CCCC2 [Tacrine],Ki,rat OCTN2 [10],500 µM
same,Cmax,[8],134 nM
CC(C)c1nc(CN(C)C(=O)N[C@H](C(=O)N[C@@H](Cc2ccccc2)C[C@H](O)[C@H](Cc2ccccc2)NC(=O)OCc2cncs2)C(C)C)cs1 [Ritonavir],Documented to cause rhabdomyolysis and/or carnitine deficiency in the literature,[2],Yes with statin[5]
CC(=O)S[C@@H]1CC2=CC(=O)CC[C@]2(C)[C@H]2CC[C@@]3(C)[C@@H](CC[C@@]34CCC(=O)O4)[C@H]12 [Spironolactone],Ki,OCTN2 [4],26 µM
same,Documented to cause rhabdomyolysis and/or carnitine deficiency in the literature,[2],No
CCCN(CCC)S(=O)(=O)c1ccc(C(=O)O)cc1 [Probenecid],Ki or IC50,OCTN2 [3],Not inhibitor
same,Documented to cause rhabdomyolysis and/or carnitine deficiency in the literature,[2],No
CO/N=C(\C(=O)N[C@@H]1C(=O)N2C(C(=O)O)=C(COC(N)=O)CS[C@H]12)c1ccco1 [Cefuroxime],Ki,OCTN2 [9],525 µM
same,Documented to cause rhabdomyolysis and/or carnitine deficiency in the literature,[2],Yes[9]
CCCC(=O)Nc1ccc(OCC(O)CNC(C)C)c(C(C)=O)c1 (stereo not drawn) [Acebutolol],Ki or IC50,OCTN2 [4],Not inhibitor
same,Documented to cause rhabdomyolysis and/or carnitine deficiency in the literature,[2],No
Cc1cn([C@H]2C[C@H](N=[N+]=[N-])[C@@H](CO)O2)c(=O)[nH]c1=O [Zidovudine],Ki,[11],6 µM
O=C1[C@H](CC[C@H](O)c2ccc(F)cc2)[C@@H](c2ccc(O)cc2)N1c1ccc(F)cc1 [Ezetimibe],Ki,OCTN2 [1],29.3 ± 5 µM
same,Documented to cause rhabdomyolysis and/or carnitine deficiency in the literature,[2],Yes with statin[15]
